Results reported in patent US11560365B2, “Non-fluorescent rhodamines” (THE UNIVERSITY OF TOKYO, priority 2018, dated 2023).

How the values were obtained:
[1] = Optical properties: relative fluorescence quantum yield with reference to Rhodamine B; format: physicochemical; settings: for fluorescence quantum yield (Φfl): relative to Rhodamine B
Protocol: The optical properties of the compound synthesized in the above Synthesis Examples were evaluated. The results are illustrated in FIG. 4.
(§1) (a to c) of FIG. 4 illustrate chemical structures of tetramethylrhodamine (TMR) (a), 4-Cl TMR (b) and 4,5-diCl TMR (c), the fluorescence quantum yields (Φf1) in MeOH containing 0.1% TFA, absorption maximum (λabs) and emission maximum (λem). Φf1 is a relative fluorescence quantum yield determined with reference to Rhodamine B (Φf1=0.65) of EtOH.
(d to f) of FIG. 4 illustrates absorption spectra and emission spectra of 1 μM TMR (d), 4-Cl TMR (e) and 4,5-diCl TMR (f) in MeOH containing 0.1% TFA and 0.1% DMSO.
as §1, with “6” for “4”, “2-Cl TMR” for “tetramethylrhodamine (TMR)”, “2-Me” for “4-Cl”, “2-F” for “4,5-diCl”, “(Oni)” for “(Φf1)”
(d to f) of FIG. 6 illustrates the absorption spectra and the emission spectra of 1 μM 2-Cl TMR (a), 2-Me TMR (b) and 2-F TMR (c) in MeOH containing 0.1% TFA and 0.1% DMSO.
(a) of FIG. 7 illustrates Φf1, λabs and λem of 2-Cl triMe rhodamine in MeOH containing 0.1% TFA. (b) of FIG. 7 illustrates the absorption spectrum and the emission spectrum of 1 μM 2-Cl triMe rhodamine in MeOH containing 0.1% TFA.

[2] = Solvent viscosity dependence of the fluorescence quantum yield; format: physicochemical
Protocol: Next, in order to examine whether the non-fluorescence of the newly developed non-fluorescent rhodamine was due to the production of the TICT state, solvent viscosity dependence of the fluorescence quantum yield was examined. Specifically, the absorption, fluorescence spectrum and fluorescence quantum yield were measured in three types of solvents including MeOH (εr=32.6, η=0.61 cP), ethylene glycol (εr=38.7, η=19.9 cP) and glycerol (εr=42.5, η=1412 cP). […] It was expected that if the formation of the TICT state was promoted by the steric hindrance due to the introduction of the substituent, while quenching was performed by the formation of the TICT state in MeOH, in a highly viscous solvent such as glycerol, a rate of intramolecular twist became slow, and the transition to the TICT state was suppressed, so that the fluorescence quantum yield would increase.
(a) of FIG. 5 is Φf1 of 4-Cl TMR in glycerol, ethylene glycol and MeOH. Φf1 is a relative fluorescence quantum yield determined with reference to Rhodamine B (Φf1=0.65) of EtOH. (b and c) of FIG. 5 illustrate the absorption spectrum (b) and the emission spectrum (c) of 1 μM 4-Cl TMR in glycerol, ethylene glycol and MeOH.

[3] = test system: CYP3A; settings: literature statement; cited from earlier work
[4] = target: T1, CYP1A2 (Homo sapiens, UniProt P05177); settings: literature (Stresser et al. 2002); cited from earlier work
T1 sequence (P05177 1-516): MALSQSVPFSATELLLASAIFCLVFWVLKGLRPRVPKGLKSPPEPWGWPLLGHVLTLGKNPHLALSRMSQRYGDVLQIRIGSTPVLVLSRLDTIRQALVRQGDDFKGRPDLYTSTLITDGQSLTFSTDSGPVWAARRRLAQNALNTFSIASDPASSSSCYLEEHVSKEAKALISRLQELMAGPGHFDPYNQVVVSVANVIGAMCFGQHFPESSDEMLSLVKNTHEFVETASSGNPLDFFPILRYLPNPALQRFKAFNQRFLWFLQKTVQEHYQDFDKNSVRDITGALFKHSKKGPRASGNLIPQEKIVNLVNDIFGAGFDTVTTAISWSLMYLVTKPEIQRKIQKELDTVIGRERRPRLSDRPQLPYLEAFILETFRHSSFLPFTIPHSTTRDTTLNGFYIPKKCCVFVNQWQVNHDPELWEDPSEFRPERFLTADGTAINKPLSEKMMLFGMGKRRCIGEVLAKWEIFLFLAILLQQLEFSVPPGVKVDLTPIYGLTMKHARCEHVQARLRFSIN

[5] = target: CYP3A4 (Homo sapiens, UniProt P08684); assay: Absorption/fluorescence spectrum changes on reaction with CYP3A4; format: biochemical; settings: 1 μM compound, CYP3A4 10 nM
Description: Next, as a representative of the compounds illustrated in FIG. 15, absorption/fluorescence spectrum changes when Compound 29 (illustrated below) was reacted with CYP3A4 were shown (FIG. 16).

[6] = test system: CYP3A in human liver microsomes; assay: Time-dependent fluorescence change with human liver microsomes and NADPH producing system
Protocol: The human liver microsomes and the NADPH producing system were pre-incubated with 0.1% DMSO or 10 μM ketoconazole for 30 minutes before addition of Compound 29, and the measurement was started immediately after addition of Compound 29.

[7] = test system: CYP3A activity of HepaRG; assay: Fluorescence imaging of CYP3A activity in living HepaRG cells; format: cell-based; settings: 1 μM compound, 37° C. 30 minutes; control and rifampicin groups versus ketoconazole group
Protocol: HepaRG (registered trademark) frozen vial 8M (HPR116-8M) purchased from KAC Co., Ltd. was thawed and inoculated according to the manufacturer's protocol, and cultured for 6 days in an 8-well chamber (Matsunami: SCC-038 collagen coat). Then, it was examined whether Compound 29 could detect the CYP3A activity of HepaRG.
Imaging was performed on three types of control group, inhibitor-added group, and derivative-added group.
Ketoconazole was used as an inhibitor. Rifampicin was used as an inducer of the CYP3A activity. […]
Here, FIG. 18 illustrates a fluorescence image (control) of HepaRG obtained when HepaRG to which 0.1% DMSO was added for 3 days was pretreated with 0.1% DMSO for 30 minutes, then 1 μM of Compound 29 was added, and the mixture was incubated at 37° C. for 30 minutes, a fluorescence image (+ inhibitor) of HepaRG obtained when 0.1% DMSO was added for 3 days and pretreated with 1 μM ketoconazole for 30 minutes before imaging, then Compound 29 was added, and the mixture was incubated at 37° C. for 30 minutes, and a fluorescence image obtained when 20 μM rifampicin were added for 3 days and was pretreated with 0.1% DMSO for 30 minutes, then Compound 29 was added, and the mixture was further incubated at 37° C. for 30 minutes. […]

[8] = in EtOH; cited from earlier work

Chain of CYP3A4 (P08684 whole entry): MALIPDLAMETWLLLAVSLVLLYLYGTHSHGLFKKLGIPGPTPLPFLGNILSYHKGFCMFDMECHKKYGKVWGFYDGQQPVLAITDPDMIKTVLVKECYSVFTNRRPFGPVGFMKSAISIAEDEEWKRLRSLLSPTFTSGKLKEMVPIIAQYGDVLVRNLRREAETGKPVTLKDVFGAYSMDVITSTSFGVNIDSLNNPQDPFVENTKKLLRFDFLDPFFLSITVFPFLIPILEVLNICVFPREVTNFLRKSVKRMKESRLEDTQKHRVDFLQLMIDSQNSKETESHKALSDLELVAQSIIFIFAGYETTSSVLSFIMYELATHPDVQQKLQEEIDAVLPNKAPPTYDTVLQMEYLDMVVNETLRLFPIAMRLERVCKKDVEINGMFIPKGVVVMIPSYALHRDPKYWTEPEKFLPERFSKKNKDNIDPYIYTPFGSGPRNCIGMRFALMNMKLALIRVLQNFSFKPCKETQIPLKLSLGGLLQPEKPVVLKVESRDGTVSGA

## CN(C)c1ccc2c(-c3ccccc3C(=O)O)c3cc(Cl)c(=[N+](C)C)cc-3oc2c1 [2-Cl TMR, 2-ClTMR]
[1]; MeOH containing 0.1% TFA
  fluorescence behaviour (in words): exhibited non-fluorescence

## C/N=c1\cc2oc3cc(N(C)C)ccc3c(-c3ccccc3C(=O)O)c-2cc1Cl [2-Cl triMe rhodamine]
[1]; MeOH containing 0.1% TFA
  fluorescence quantum yield: 15%

## CN(C)c1ccc2c(-c3ccccc3C(=O)O)c3cc(F)c(=[N+](C)C)cc-3oc2c1 [2-F TMR, 2-FTMR]
[1]; MeOH containing 0.1% TFA
  fluorescence quantum yield: about 10%

## Cc1cc2c(-c3ccccc3C(=O)O)c3ccc(N(C)C)cc3oc-2cc1=[N+](C)C [2-Me TMR, 2-MeTMR]
[1]; MeOH containing 0.1% TFA
  fluorescence quantum yield: about 1%

## Cc1ccccc1-c1c2ccc(=[N+](C)C)c(Cl)c-2oc2c(Cl)c(N(C)C)ccc12 [4,5-diCl TMR, 4,5-diClTMR]
[1]; MeOH containing 0.1% TFA
  fluorescence quantum yield (Φfl): 0.001

## COc1cccc(OC)c1C1=C2C=CC(=[N+](C)C)C(Cl)=C2[Si](C)(C)c2c1ccc(N(C)C)c2Cl [4,5-diCl TMSiR]
[1]; Si-rhodamines, Example 5
  fluorescence quantum yield: ≤ 0.1%

## Cc1ccccc1-c1c2ccc(=[N+](C)C)c(Cl)c-2oc2cc(N(C)C)ccc12 [4-Cl TMR, 4-ClTMR]
[1]; MeOH containing 0.1% TFA
  fluorescence quantum yield (Φfl): 0.003
[2]; MeOH (η=0.61 cP)
  fluorescence quantum yield (Φfl): 0.003
[2]; ethylene glycol (η=19.9 cP)
  fluorescence quantum yield (Φfl): 0.01
[2]; glycerol (η=1412 cP)
  fluorescence quantum yield (Φfl): 0.09

## Cc1ccccc1C1=C2C=CC(=[N+](C)C)C(Cl)=C2[Si](C)(C)c2cc(N(C)C)ccc21 [4-Cl TMSiR]
[1]; Si-rhodamines, Example 5
  fluorescence quantum yield: 1%

## O=c1cc(C(F)(F)F)c2ccc(OCc3ccccc3)cc2o1 [BFC, 7-benzyloxy-4-trifluoromethylcoumarin]
[3]
  metabolism by CYP3A: metabolized by CYP3A
[4]
  metabolism by CYP1A2: metabolized to some extent by CYP1A2

## c1ccc(COc2ccc3cccnc3c2)cc1 [BQ, 7-benzyloxyquinoline]
[3]
  metabolism by CYP3A: metabolized by CYP3A
[4]
  metabolism by CYP1A2: metabolized to some extent by CYP1A2

## CCCCCOCC/[N+](C)=c1/cc2oc3cc(N(C)C)ccc3c(-c3ccccc3C(=O)O)c-2cc1C [Compound 29]
[5]; pH 7.4
  change of absorption on reaction with CYP3A4: Shortening the absorption wavelength
[5]; pH 7.4, excitation 520 nm
  change of fluorescence intensity on reaction with CYP3A4: significant increase in fluorescence intensity
[6]; pH 7.4
  fluorescence change on reaction with human liver microsomes: showed the increase in fluorescence
[7]
  detection of CYP3A activity in living cells by fluorescence: could detect the CYP3A activity even in living cells

## CCN(CC)c1ccc2c(-c3ccccc3C(=O)O)c3ccc(=[N+](CC)CC)cc-3oc2c1.[Cl-] [Rhodamine B]
[8]
  fluorescence quantum yield (Φfl) of the reference: 0.65

## CC(=O)N1CCN(c2ccc(OCC3COC(Cn4ccnc4)(c4ccc(Cl)cc4Cl)O3)cc2)CC1 (stereo not shown) [ketoconazole, reference compound]
[6]; 10 μM ketoconazole pre-incubated 30 minutes
  effect of inhibitor on the fluorescence increase of Compound 29 in human liver microsomes: suppressed

## Cc1ccccc1-c1c2ccc(=[N+](C)C)cc-2oc2cc(N(C)C)ccc12 [reference compound]
[1]; MeOH containing 0.1% TFA
  fluorescence quantum yield (Φfl): 0.399
